Data published in PMC11706420, “Establishing a physiologically based pharmacokinetic framework for aldehyde oxidase and dual aldehyde oxidase‐CYP substrates” (CPT: Pharmacometrics & Systems Pharmacology, 2024).
Like-named read-outs stand apart in the source and are kept apart here.

Tests used:
[1] = Inhibitor plasma exposure and plasma binding (literature); type: in vivo, human; settings: Figure 5
Source text: (§1) Supplement 5. Exploratory analysis to evaluate potential AO-mediated DDI risks […]
(§2) Semi-mechanistic model for AO-mediated DDI risk predictions
(§3) Supp. Table 4. Summary of inhibitor parameters used in the semi -mechanistic static model to evaluate the risk of AO -mediated DDIs
(§4) Semi-mechanistic model for AO mediated DDI risk predictions: […]
(§5) using the semi-mechanistic static model with listed parameters in Suppl. Table 4. The most conservative approach is used for all compounds with maximum Cmax,u and minimum Ki,u data available. […]
(§6) [I] is the unbound concentration of inhibitors in the liver and was designated as the unbound maximum systemic concentration of inhibitors as a surrogate. 27 Due to the lack of AO kdeg values in the literature, the arithmetic means of all reported P450 kdeg (0.00026 min-1) was used.28, 29 […]
(§7) Table S4. Summary of inhibitor parameters used in the semi-mechanistic static model to evaluate the risk of […]
(§8) bSimcyp v.21 Compound Repository […]
(§9) dCorrected for the 0.05 mg/mL cytosolic protein from the measured fuinc at 1.5 mg/mL cytosolic protein34, 36

UGT1A1 = test system: UGT1A1; design: method as in suppl. 32; settings: ref suppl. 32; cited from earlier work
aldehyde oxidase (AO) [2] = biological target: T1, aldehyde oxidase (AO) (Homo sapiens, UniProt Q06278); settings: cited from earlier work
T1 sequence (Q06278 1-1338): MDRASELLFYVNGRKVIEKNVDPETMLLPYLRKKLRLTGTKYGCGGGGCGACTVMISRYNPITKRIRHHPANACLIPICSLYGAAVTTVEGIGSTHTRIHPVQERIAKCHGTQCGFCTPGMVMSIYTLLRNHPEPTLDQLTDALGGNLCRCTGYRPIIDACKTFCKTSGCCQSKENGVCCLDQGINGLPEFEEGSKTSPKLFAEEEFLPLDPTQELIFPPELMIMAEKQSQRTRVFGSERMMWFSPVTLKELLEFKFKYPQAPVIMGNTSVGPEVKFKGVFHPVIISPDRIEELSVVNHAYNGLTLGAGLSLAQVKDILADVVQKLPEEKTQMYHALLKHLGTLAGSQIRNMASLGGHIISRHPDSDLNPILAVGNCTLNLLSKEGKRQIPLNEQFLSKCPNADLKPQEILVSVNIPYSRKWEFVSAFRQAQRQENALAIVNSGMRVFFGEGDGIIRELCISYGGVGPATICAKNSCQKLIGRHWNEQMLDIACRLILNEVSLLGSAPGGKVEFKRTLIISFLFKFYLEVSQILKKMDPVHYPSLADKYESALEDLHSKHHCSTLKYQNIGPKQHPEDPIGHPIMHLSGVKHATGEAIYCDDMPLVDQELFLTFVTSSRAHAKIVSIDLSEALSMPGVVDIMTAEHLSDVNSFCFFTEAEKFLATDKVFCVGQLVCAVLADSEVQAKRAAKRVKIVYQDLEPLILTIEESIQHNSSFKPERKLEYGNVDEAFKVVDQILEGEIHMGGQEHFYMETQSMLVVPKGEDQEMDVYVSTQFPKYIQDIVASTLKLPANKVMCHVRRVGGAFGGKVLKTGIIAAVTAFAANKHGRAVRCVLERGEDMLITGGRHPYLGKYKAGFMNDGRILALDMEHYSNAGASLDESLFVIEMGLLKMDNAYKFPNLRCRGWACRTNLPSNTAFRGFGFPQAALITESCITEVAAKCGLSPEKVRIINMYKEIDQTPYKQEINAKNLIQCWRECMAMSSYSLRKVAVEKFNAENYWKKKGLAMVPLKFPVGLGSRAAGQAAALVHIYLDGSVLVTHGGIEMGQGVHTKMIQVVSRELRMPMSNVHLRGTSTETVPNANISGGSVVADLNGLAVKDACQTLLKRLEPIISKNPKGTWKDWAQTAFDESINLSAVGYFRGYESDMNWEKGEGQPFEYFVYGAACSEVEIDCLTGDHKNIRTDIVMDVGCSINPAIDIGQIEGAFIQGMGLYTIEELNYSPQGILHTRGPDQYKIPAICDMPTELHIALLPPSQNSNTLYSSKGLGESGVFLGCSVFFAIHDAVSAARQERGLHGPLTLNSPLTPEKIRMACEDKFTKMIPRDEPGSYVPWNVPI

UGT1A3 = test system: UGT1A3; design: method as in suppl. 32; settings: ref suppl. 32; cited from earlier work
aldehyde oxidase (AO) [3] = biological target: T1, aldehyde oxidase (AO); assay: In vitro AO inhibition (literature); settings: cytosol, Figure 5
Source text: as §1, §2, §3, §4, §5, §6, §7, §8, §9

[4] = Cytosolic binding (fucyt), dog liver cytosol; settings: 1 mg/mL; n=3, mean (CV%)
Protocol: In vitro data were generated to inform the PBPK models of the selected drugs (Supplement 1 in Appendix S1; Table S1). Subcellular fractions of human and dog liver were sourced from XenoTech (Kansas City, KS, USA). In vitro CLint,u was measured with substrate depletion and binding assays for all compounds (1 μM) in human liver microsomes (HLM; 0.25–0.5 mg/mL) and HLC (1 mg/mL). HLC pool was prepared from livers perfused with Custodiol HTK (histidine tryptophan ketoglutarate) solution, marketed as having preserved “high AO/XO activity.”[15] Dog liver cytosols (DLC; 1 mg/mL) were used to investigate cytosolic binding in the absence of AO. Routine in vitro assays were used to quantify unbound fraction in plasma (fup), blood‐to‐plasma ratio (B/P), and apparent permeability (Papp) through transwell transport assays utilizing canine Mdr1 knockout and empty vector‐transfected MDCKI cells.
𝐶𝐿 = 𝑘 × 𝑣𝑜𝑙𝑢𝑚𝑒 𝑜𝑓 𝑖𝑛𝑐𝑢𝑏𝑎𝑡𝑖𝑜𝑛 (Eq S9)
Cytosolic binding (fucyt):
The fraction unbound in human liver cytosols (fucyt) of compounds was determined by equilibrium
dialysis using the RED device (Thermo Fisher, Waltham MA, USA) with a molecular weight cut-off of
8 kDa. Dog or human liver cytosols at 1 mg/mL with 1 µM of compounds (300 µL, n=3 per compound)
were added to the donor compartment in 100 mM potassium phosphate buffer with final DMSO
liver cytosols to inactivate AO, whereas dog was used as a natural AO knock-out model. 500 µL of 100
mM potassium phosphate buffer (pH 7.35) was added to the receiver chamber for each replicate.
RED device was then sealed with an adhesive foil and incubated on an orbital shaker at 450 rpm (VWR
Symphony) at 37°C with 5 % CO2. After reaching equilibrium for 4 hours, aliquots from both the
receiver (30µL) and donor (30µL) sides of the membrane were matrix matched, and then quenched with
180 µL of cold ACN with 100 nM propranolol (internal standard). The samples were placed in a
Beckman Coulter Allegra x 12R Centrifuge (Brea, CA) for 15 minutes at 3700 rpm. After centrifugation,
the supernatant of each sample was diluted 1:2 and analyzed by LC -MS/ MS. Matrix stability and
recovery were assessed in triplicates and followed identical sample preparation.
Microsomal binding (fumic):
(§10) The fraction unbound in human liver microsomes (fumic) of compounds was determined by equilibrium
(§11) dialysis using the high-throughput dialysis method 2 using membranes from HTDialysis, LLC (Gales
(§12) Ferry, CT) having 12 to 14 kDa molecular mass cutoff. Deactivated HLM (by leaving the HLM
(§13) incubation media on the bench overnight at ambient temperature) at 0.25 mg/mL with 2 µM of
(§14) compounds (a final concentration of DMSO as 1%) was added to the donor compartment in 50 mM
(§15) phosphate buffer containing 1 M MgCl2. (150 µL, n=4 per compound). 150 µL of Dulbecco’s PBS
(§16) buffer (pH 7.4) was added to the receiver chamber for each replicate. After reaching equilibrium for 6
(§17) h on a plate shaker (200 rpm) at 37°C in a humidified CO2 incubator (5% CO2), aliquots from both the
(§18) receiver (45 µL) and donor (15 µL) sides of the membrane were matrix matched and analyzed by LC-
(§19) MS/MS. Matrix stability (n=3) and % of recovery (n=4) were assessed.
(§20) Data analysis for binding in microsomal and cytosolic incubations:
(§21) Fraction unbound in microsomal (fumic) and cytosolic (fucyt) incubations were calculated via Eq. S10-11
(§22) based on the ratio of the peak areas of analyte and internal standard.
(§23) 𝑃𝑒𝑎𝑘 𝐴𝑟𝑒𝑎 𝑅𝑎𝑡𝑖𝑜 = (𝑃𝑒𝑎𝑘 𝐴𝑟𝑒𝑎 𝑜𝑓 𝐴𝑛𝑎𝑙𝑦𝑡𝑒)/(𝑃𝑒𝑎𝑘 𝐴𝑟𝑒𝑎 𝑜𝑓 𝐼𝑛𝑡𝑒𝑟𝑛𝑎𝑙 𝑆 tan 𝑑 𝑎𝑟𝑑) (Eq. S10)
(§24) 𝑓𝑢𝑚𝑖𝑐 𝑜𝑟 𝑓𝑢𝑐𝑦𝑡 = (𝑃𝑒𝑎𝑘 𝐴𝑟𝑒𝑎 𝑅𝑎𝑡𝑖𝑜 𝑖𝑛 𝑟𝑒𝑐𝑒𝑖𝑣𝑒𝑟 𝑐𝑜𝑚𝑝𝑎𝑟𝑡𝑚𝑒𝑛𝑡)/
(§25) concentration (0.5 mg/mL) using Hallifax and Houston algorithm (Hallifax and Houston, 2006). Matrix
(§26) stability and recovery were assessed using Eq. S12 and Eq. S13.
(§27) %𝑠𝑡𝑎𝑏𝑖𝑙𝑖𝑡𝑦 = (𝐴𝑣𝑒𝑟𝑎𝑔𝑒 𝑝𝑒𝑎𝑘 𝑎𝑟𝑒𝑎 𝑖𝑛 𝑚𝑎𝑡𝑟𝑖𝑥 𝑎𝑡 𝑡ℎ𝑒 𝑒𝑛𝑑 𝑜𝑓 𝑖𝑛𝑐𝑢𝑏𝑎𝑡𝑖𝑜𝑛)/
(§28) (𝐴𝑣𝑒𝑟𝑎𝑔𝑒 𝑝𝑒𝑎𝑘 𝑎𝑟𝑒𝑎 𝑎𝑡 𝑇 = 0) × 100 (Eq. S12)
%𝑟𝑒𝑐𝑜𝑣𝑒𝑟𝑦 = (𝐴 + 𝐵)/𝐶 × 100 (Eq. S13)
(§29) where A is the average peak area ratio of all matrix samples, B is the average peak area ratio

[5] = without inhibitor; cited from earlier work
[6] = cited from earlier work
[7] = cited from earlier work; remark: listed apart in the source
CYP3A4 = settings: cited from earlier work
[8] = Cytosolic binding (fucyt), human liver cytosol with AO inhibitor; settings: 1 mg/mL; n=3, mean (CV%)
[9] = cited from earlier work; for fmAO: ref suppl. 8-13; for fmCYP3A4: ref suppl. 8-12
[10] = Blood-to-plasma ratio (B/P); type: in vitro ADME, human
Source text: Determination of blood to plasma ratio (B/P):
Whole human blood was collected on the day of the experiment from healthy volunteers. The collection protocol was approved by an independent ethical committee and all donors signed the consent forms. All samples were registered in the Janssen Biobank.
Prewarmed blood aliquots were mixed with the compounds (final concentrations shown in Suppl. Table 5) with a final organic DMSO solvent concentration of ≤0.1% (v/v). After gentle mixing to avoid haemolysis, blood aliquots were immediately collected for protein precipitation (1:1:8 ratios of blood sample:DMSO:ACN) and centrifugation (10 minutes, 3800 g) and the supernatant was used as a 0-minute reference blood sample. At the same time, blood aliquots were taken and centrifuged (10 minutes, 1200 g) to obtain the plasma portion. Plasma aliquots were then immediately collected for protein precipitation (1:1:8 ratios of plasma sample:DMSO:ACN) and centrifugation (10 minutes, 3800 g) and the supernatant was used as a 0-minute reference plasma sample. The remainder of the blood fraction was incubated (30 min at 37 °C). Following incubation, 30 -minute blood and plasma samples were taken and prepared as described for the reference 0-minute samples.
Mean compound concentration values (n=3 replicates) were calculated for both the blood and plasma samples. A blood-to-plasma concentration ratio was then determined using Eq. S4. […]

[11] = In vitro permeability (Papp), transwell transport; settings: dog, MDCK
[12] = Microsomal clearance incubations (substrate depletion); settings: both, human, liver microsomes
[13] = Microsomal binding (fumic)
Protocol: Microsomal binding (fumic):
as §10, §11, §12, §13, §14, §15, §16, §17, §18, §19, §20, §21, §22, §23, §24, §25, §26, §27, §28
%𝑟𝑒𝑐𝑜𝑣𝑒𝑟𝑦 = (𝐴 + 𝐵)/𝐶 × 100 (Eq. S13)
as §29
of all buffer samples multiplied with the buffer dilution factor and C is the average peak area ratio of

[14] = Plasma protein binding (fup), rapid equilibrium dialysis; type: in vitro ADME, human; settings: male, human, plasma, 20 h, 1 µM
Protocol: (differing in 2 donors) were used for activity and microsomal binding assays, respectively.
The human biological samples were sourced ethically, and their research use was in accord with the terms of the informed consents under an IRB/EC approved protocol.
Determination of plasma protein binding (fup):
Human plasma (male, K2EDTA) was obtained from BioIVT (Baltimore, MD, USA). A pool of n=20 donors was prepared in-house (batch: 16062022). The plasma protein binding of compounds in human was determined by equilibrium dialysis using the rapid equilibrium dialysis (RED) device (Thermo […]
Frozen blank human plasma […]
solution to a final concentration of 1 µM (0.5 % DMSO). 300 µ L of the fortified plasma samples were subjected to dialysis against 500 µL PBS buffer at pH 7.4, for 6 h at 37 °C in triplicate. After dialysis, 200 µl aliquots of the buffer and the plasma compartments were transferred into micronic tubes. To minimize the potential for non -specific binding to the micronic tubes the buffer sam ples were collected on to 50µl of 10 % bovine serum albumin (BSA). For the assessment of test compound stability in plasma, 300 µl aliquots of the spiked plasma solutions were transferred into micronic tubes and incubated in an air heated incubator at 37°C without shaking for 4 and 20 hours. The remaining spiked protein solutions were frozen and used to measure the initial start concentration ( C0) to calculate the recovery. Sample analysis was achieved by LC -MS/MS and absolute quantification of the drug lev els in the buffer and plasma compartments was achieved via a matrix matched calibration curve (in the presence of an internal standard tolbutamide). All buffer and plasma sample sets were matrix matched […]
for analysis. The samples were centrifuged (15 minutes, 3400 g) and supernatants were transferred to a fresh plate for analysis. The unbound concentration (Cu), and the total concentration (CED) were determined by measurement of the concentration of the test compound in the buffer and plasma compartments of the dialysis cells, respectively. The fraction unbound was calculated using Eq. S1.
fuplasma = Cu/CED (Eq. S1)
The percentage recovery was calculated as the ratio of the sum of the amount in the buffer (Au) and plasma (AED) compartments to the amount at time zero (A0) (Eq. S2). The percentage stability was calculated as the ratio of the concentration of the test compound at the end of the incubation (C t) time […]
% recovery = (( Au + AED ) / A0 ) × 100 (Eq. S2)

[15] = design: method as in earlier work; settings: menadione 100 µM; ref 45 (suppl.); cited from earlier work
[16] = iv: zaleplon 5 (F), ziprasidone 5, zoniporide 80 mg, observed, ref suppl. 22,23,13
[17] = DDI study with rifampicin (capmatinib 400, idelalisib 150, lenvatinib 24 mg) or carbamazepine (ziprasidone 20 mg), observed, ref suppl. 15,18,21,25
[18] = with itraconazole (capmatinib 200 mg) or ketoconazole (idelalisib 400, lenvatinib 5, ziprasidone 40 mg), observed, ref suppl. 15,10,17,20,24
[19] = with rifampicin (capmatinib 400, idelalisib 150, lenvatinib 24 mg) or carbamazepine (ziprasidone 20 mg), observed, ref suppl. 15,18,21,25
[20] = corrected with Hallifax&Houston algorithm

## C#Cc1cccc(Nc2ncnc3cc4c(cc23)OCCOCCOCCO4)c1 [Icotinib]
[1]
  Cmax,u: 570 nM
UGT1A1
  IC50: 12.2 µM
Aldehyde oxidase (AO) [2]; ref suppl. 30, 31, 32, 35, 59
  Mode of inhibition: Time-dependent
Aldehyde oxidase (AO) [2]; ref suppl. 32
  Maximal inactivation rate (kinact): 0.55 min⁻¹
UGT1A3
  Ki: 25.6 µM
Aldehyde oxidase (AO) [3]; KI,u
  Ki: 0.92 µM
Aldehyde oxidase (AO) [3]; Ki,u
  Ki: 0.35 µM

## O=C1Cc2cc(CCN3CCN(c4nsc5ccccc45)CC3)c(Cl)cc2N1 [Ziprasidone]
[4]
  fucyt, Dog Liver Cytosol with 50 uM Hydralazine: 0.288 (3.81)
[5]
  HH CLint (no reaction phenotyping): 21.8[5], ^f μL/min/10^6 hepatocytes
[6]; i.v., ref Table S2/S3 studies
  CLiv/oral [CV%]: 23.04 [14] (i.v.) L/h
[6]; [16]
  AUCinf: 217 (20) ng.h/mL
  Cmax: 83 (21) ng/mL
[6]; observed, ref Table S2/S3 studies
  CLRenal: Negligible
[6]; oral: capmatinib 200, idelalisib 150, lenvatinib 10, zaleplon 5 (F), ziprasidone 20 mg, observed mean or geomean (CV%), ref suppl. 8,14,16,19,22,23
  Cmax: 64 (28) ng/mL
[6]; oral: capmatinib 200, idelalisib 150, lenvatinib 10, zaleplon 5 (F), ziprasidone 20 mg, observed, ref suppl. 8,14,16,19,22,23
  AUCinf: 514 (27) ng.h/mL
[7]; 47 (per cell)
  pKa1: 8.24[12]
  pKa2: 6.31[12]
[7]; octanol-water, 12 (per cell)
  logP: 4.53[12]
CYP3A4; DDI study with itraconazole (capmatinib 200 mg) or ketoconazole (idelalisib 400, lenvatinib 5, ziprasidone 40 mg), observed geomean (CV%), ref suppl. 15,10,17,20,24
  Cmax, control: 89 (30) ng/mL
CYP3A4; DDI study with itraconazole (capmatinib 200 mg) or ketoconazole (idelalisib 400, lenvatinib 5, ziprasidone 40 mg), observed, ref suppl. 15,10,17,20,24
  AUCinf, control: 899 (20) ng.h/mL
CYP3A4; [17]
  AUCinf, control (AUC0-12 for ziprasidone): 495 (26) ng.h/mL
  Cmax, control: 79 (24) ng/mL
CYP3A4; [18]
  AUCinf, interaction: 1199 (18) ng.h/mL
  Cmax, interaction: 119 (25) ng/mL
CYP3A4; [19]
  AUCinf, interaction (AUC0-12 for ziprasidone): 285 (28) ng.h/mL
  Cmax, interaction: 48 (27) ng/mL
[8]
  fucyt, Human Liver Cytosol with 5 uM Raloxifene: 0.337 (4.82)
  fucyt, Human Liver Cytosol with 50 uM Hydralazine: 0.356 (2.53)
[9]; measured in excreta
  fmAO: 0.67
[9]; observed (mass balance), min-max where uncertain, Table S10
  fmAO: 67
[9]; observed (mass balance), min-max where uncertain
  fmCYP3A4: 33
[9]
  fmCYP3A4: 0.33
[10]; 50 ng/mL
  B/P: 0.44
[10]; 1000 ng/mL
  B/P: 0.47
[10]; assumed from measured 0.455
  B/P (assumed PBPK input): 0.55
[11]
  Papp A→B at 120 min, 5 µM: 3.15 ×10⁻⁶ cm/s
  Papp B→A at 120 min, 5 µM: 0.843 ×10⁻⁶ cm/s
  efflux ratio at 120 min, 5 µM: 0.268
[12]
  microsomal CLint at 1 µM: 71.9 µL/min/mg
[13]; at incubation protein concentration (0.25 or 0.5 mg/mL)
  fumic (PBPK input): 0.210
[13]; [20]
  Predicted fumic for 0.5 mg/mL: 0.118
  Predicted fumic for 1 mg/mL: 0.063
[14]
  % Stability in plasma: 96.2%

## CC1=CC(=O)c2ccccc2C1=O [menadione]
[15]
  inhibition of ziprasidone reduction: 90%
